This test has as its target T1, Recombinant human BRD4 containing dual bromodomains (BRD4-BD12 (1-477)) (Homo sapiens, UniProt O60885).
T1 construct: Recombinant human BRD4 containing dual bromodomains (BRD4-BD12 (1-477)); made in house; host or cells: E. coli BL21-CodonPlus (DE3), modified pET vector
In words: BRD4 Alphascreen binding assay. The procedure, abridged: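 His-tagged human BRD4 tandem bromodomains (1-477, E. coli) incubated 1 h at room temperature with biotinylated tetra-acetylated H4 (1-21) peptide and compound in HEPES pH 7.5 buffer with 2 mM DTT. AlphaScreen signal read 30 min after adding beads (7.5 μg/ml); IC50 from four-parameter fit after normalization to controls.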

For orientation: IC50 means the concentration that gives 50% inhibition.

Take `Cc1noc(C)c1-c1cnc2c(c1)c(-c1ccc(C(=O)O)cc1OC(F)(F)F)cn2-c1ccc(=O)n(C)c1` [P-0399, 4-(5-(3,5-dimethylisoxazol-4-yl)-1-(1-methyl-6-oxo-1,6-dihydropyridin-3-yl)-1H-pyrrolo[2,3-b]pyridin-3-yl)-3-(trifluoromethoxy)benzoic acid]: the IC50 fell in the range of 1 to 8 µM. As for `CCc1noc(C)c1-c1cnc2c(c1)c(-c1ccc(C(=O)O)cc1OC(F)(F)F)cn2C1CCOCC1` [P-0400, 4-(5-(3-ethyl-5-methylisoxazol-4-yl)-1-(tetrahydro-2H-pyran-4-yl)-1H-pyrrolo[2,3-b]pyridin-3-yl)-3-(trifluoromethoxy)benzoic acid], the figure is 1 to 8 µM; as for `CCc1onc(C)c1-c1cnc2c(c1)c(-c1ccc(C(=O)O)cc1OC(F)(F)F)cn2C1CCOCC1` [P-0401, 4-(5-(5-ethyl-3-methylisoxazol-4-yl)-1-(tetrahydro-2H-pyran-4-yl)-1H-pyrrolo[2,3-b]pyridin-3-yl)-3-(trifluoromethoxy)benzoic acid], 1 to 8 µM.

Turning to `Cc1cc(C(=O)O)cc(OC(C)C)c1-c1cn(C2CCOCC2)c2ncc(-c3c(C)noc3C)cc12` [P-0402, 4-(5-(3,5-dimethylisoxazol-4-yl)-1-(tetrahydro-2H-pyran-4-yl)-1H-pyrrolo[2,3-b]pyridin-3-yl)-3-isopropoxy-5-methylbenzoic acid], the half-inhibitory concentration (IC50) lay within 1 to 8 µM. Take `Cc1noc(C)c1-c1cnc2c(c1)c(-c1ccc(C(=O)O)cc1OC(C)C)cn2C1(C)CCOCC1` [P-0403, 4-(5-(3,5-dimethylisoxazol-4-yl)-1-(4-methyltetrahydro-2H-pyran-4-yl)-1H-pyrrolo[2,3-b]pyridin-3-yl)-3-isopropoxybenzoic acid]: the IC50 was in the range of 8 to 1000 µM. As for `Cc1noc(C)c1-c1cnc2c(c1)c(-c1c(Cl)cc(C(=O)O)cc1OC(C)C)cn2C1(C)CCOCC1` [P-0404, 3-chloro-4-(5-(3,5-dimethylisoxazol-4-yl)-1-(4-methyltetrahydro-2H-pyran-4-yl)-1H-pyrrolo[2,3-b]pyridin-3-yl)-5-isopropoxybenzoic acid], the figure is 8 to 1000 µM; as for `CCOc1nc(C(=O)O)ccc1-c1cn(C2(C)CCOCC2)c2ncc(-c3c(C)noc3C)cc12` [P-0405, 5-(5-(3,5-dimethylisoxazol-4-yl)-1-(4-methyltetrahydro-2H-pyran-4-yl)-1H-pyrrolo[2,3-b]pyridin-3-yl)-6-ethoxypicolinic acid], 1 to 8 µM. Turning to `CCOc1nc(C(=O)O)c(Cl)cc1-c1cn([C@H]2CCOC2)c2ncc(-c3c(C)noc3C)cc12` [P-0406, (S)-3-chloro-5-(5-(3,5-dimethylisoxazol-4-yl)-1-(tetrahydrofuran-3-yl)-1H-pyrrolo[2,3-b]pyridin-3-yl)-6-ethoxypicolinic acid], the IC50 was in the range of 8 to 1000 µM. For the compound `Cc1noc(C)c1-c1cnc2c(c1)c(-c1ccc(C(=O)O)cc1OC(C)C)cn2C1(C)CCOC1` (centres unmarked) [P-0407, 4-(5-(3,5-dimethylisoxazol-4-yl)-1-(3-methyltetrahydrofuran-3-yl)-1H-pyrrolo[2,3-b]pyridin-3-yl)-3-isopropoxybenzoic acid], the IC50 is 8 to 1000 µM. For the compound `Cc1noc(C)c1-c1cnc2c(c1)c(-c1c(Cl)cc(C(=O)O)cc1OC(C)C)cn2C1(C)CCOC1` (centres unmarked) [P-0408, 3-chloro-4-(5-(3,5-dimethylisoxazol-4-yl)-1-(3-methyltetrahydrofuran-3-yl)-1H-pyrrolo[2,3-b]pyridin-3-yl)-5-isopropoxybenzoic acid], the IC50 lay within 8 to 1000 µM. With `Cc1noc(C)c1-c1cnc2c(c1)c(-c1c(Cl)cc(C(=O)O)cc1OC1CC1)cn2-c1ncccc1C#N` [P-0409, 3-chloro-4-(1-(3-cyanopyridin-2-yl)-5-(3,5-dimethylisoxazol-4-yl)-1H-pyrrolo[2,3-b]pyridin-3-yl)-5-cyclopropoxybenzoic acid], the IC50 was in the range of 1 to 8 µM.

Turning to `Cc1noc(C)c1-c1cnc2c(c1)c(-c1c(F)cc(C(=O)O)cc1OC1CCC1)cn2C1CCOCC1` [P-0410, 3-cyclobutoxy-4-(5-(3,5-dimethylisoxazol-4-yl)-1-(tetrahydro-2H-pyran-4-yl)-1H-pyrrolo[2,3-b]pyridin-3-yl)-5-fluorobenzoic acid], the IC50 fell in the range of 8 to 1000 µM.

`CCOc1nc(C(=O)O)cc(C)c1-c1cn(C2CCOCC2)c2ncc(-c3c(C)noc3C)cc12` [P-0411, 5-(5-(3,5-dimethylisoxazol-4-yl)-1-(tetrahydro-2H-pyran-4-yl)-1H-pyrrolo[2,3-b]pyridin-3-yl)-6-ethoxy-4-methylpicolinic acid]: the IC50 is 8 to 1000 µM. The same measure for `CCOc1nc(C(=O)O)cc(C)c1-c1cn(-c2ccc(F)cc2F)c2ncc(-c3c(C)noc3C)cc12` [P-0412, 5-(1-(2,4-difluorophenyl)-5-(3,5-dimethylisoxazol-4-yl)-1H-pyrrolo[2,3-b]pyridin-3-yl)-6-ethoxy-4-methylpicolinic acid]: 1 to 8 µM; for `Cc1nnn(C)c1-c1cnc2c(c1)c(-c1ccc(C(=O)O)cc1OC1CC1)cn2C1CCOCC1` [P-0413, 3-cyclopropoxy-4-(5-(1,4-dimethyl-1H-1,2,3-triazol-5-yl)-1-(tetrahydro-2H-pyran-4-yl)-1H-pyrrolo[2,3-b]pyridin-3-yl)benzoic acid]: 1 to 8 µM. `CCOc1cc(C(=O)O)nc(OCC)c1-c1cn(-c2ccccc2F)c2ncc(-c3c(C)noc3C)cc12` [P-0414, 5-(5-(3,5-dimethylisoxazol-4-yl)-1-(2-fluorophenyl)-1H-pyrrolo[2,3-b]pyridin-3-yl)-4,6-diethoxypicolinic acid]: the IC50 was in the range of 1 to 8 µM.

For the compound `CCOc1cc(C(=O)O)nc(OCC)c1-c1cn([C@@H](C)c2ccccn2)c2ncc(-c3c(C)noc3C)cc12` [P-0415, (S)-5-(5-(3,5-dimethylisoxazol-4-yl)-1-(1-(pyridin-2-yl)ethyl)-1H-pyrrolo[2,3-b]pyridin-3-yl)-4,6-diethoxypicolinic acid], the IC50 lay within 8 to 1000 µM. As to `CCOc1nc(C(=O)O)c(C)cc1-c1cn(C(C2CC2)C2CC2)c2ncc(-c3c(C)noc3C)cc12` [P-0416, 5-(1-(dicyclopropylmethyl)-5-(3,5-dimethylisoxazol-4-yl)-1H-pyrrolo[2,3-b]pyridin-3-yl)-6-ethoxy-3-methylpicolinic acid], the half-maximal inhibitory concentration (IC50) is 8 to 1000 µM.

For the compound `CCOc1nc(C(=O)O)cc(C)c1-c1cn(C(C2CC2)C2CC2)c2ncc(-c3c(C)noc3C)cc12` [P-0417, 5-(1-(dicyclopropylmethyl)-5-(3,5-dimethylisoxazol-4-yl)-1H-pyrrolo[2,3-b]pyridin-3-yl)-6-ethoxy-4-methylpicolinic acid], the IC50 was 8 to 1000 µM. With `Cc1noc(C)c1-c1cnc2c(c1)c(-c1ccnc(C(=O)O)c1C)cn2C(C1CC1)C1CC1` [P-0418, 4-(1-(dicyclopropylmethyl)-5-(3,5-dimethylisoxazol-4-yl)-1H-pyrrolo[2,3-b]pyridin-3-yl)-3-methylpicolinic acid], the IC50 lay within 0.0001 to 1 µM. Turning to `Cc1noc(C)c1-c1cnc2c(c1)c(-c1ccnc(C(=O)O)c1C)cn2C1CCOCC1` [P-0419, 4-(5-(3,5-dimethylisoxazol-4-yl)-1-(tetrahydro-2H-pyran-4-yl)-1H-pyrrolo[2,3-b]pyridin-3-yl)-3-methylpicolinic acid], the IC50 was in the range of 0.0001 to 1 µM. As to `CCOc1cc(C(=O)O)nc(OCC)c1-c1cn(C(C2CC2)C2CC2)c2ncc(-c3c(C)noc3C)cc12` [P-0420, 5-(1-(dicyclopropylmethyl)-5-(3,5-dimethylisoxazol-4-yl)-1H-pyrrolo[2,3-b]pyridin-3-yl)-4,6-diethoxypicolinic acid], the IC50 lay within 8 to 1000 µM. The same measure for `CCOc1cc(C(=O)O)nc(OCC)c1-c1cn(-c2ncccc2C#N)c2ncc(-c3c(C)noc3C)cc12` [P-0421, 5-(1-(3-cyanopyridin-2-yl)-5-(3,5-dimethylisoxazol-4-yl)-1H-pyrrolo[2,3-b]pyridin-3-yl)-4,6-diethoxypicolinic acid]: 8 to 1000 µM. The same measure for `CCOc1cc(C(=O)O)nc(OCC)c1-c1cn(-c2ncccc2C(N)=O)c2ncc(-c3c(C)noc3C)cc12` [P-0422, 5-(1-(3-carbamoylpyridin-2-yl)-5-(3,5-dimethylisoxazol-4-yl)-1H-pyrrolo[2,3-b]pyridin-3-yl)-4,6-diethoxypicolinic acid]: 8 to 1000 µM; for `CCOc1cc(C(=O)O)nc(OCC)c1-c1cn(-c2ccc(C#N)cc2F)c2ncc(-c3c(C)noc3C)cc12` [P-0423, 5-(1-(4-cyano-2-fluorophenyl)-5-(3,5-dimethylisoxazol-4-yl)-1H-pyrrolo[2,3-b]pyridin-3-yl)-4,6-diethoxypicolinic acid]: 1 to 8 µM. The same measure for `CCOc1cc(C(=O)O)nc(OCC)c1-c1cn(-c2cnc(C3CC3)nc2)c2ncc(-c3c(C)noc3C)cc12` [P-0424, 5-(1-(2-cyclopropylpyrimidin-5-yl)-5-(3,5-dimethylisoxazol-4-yl)-1H-pyrrolo[2,3-b]pyridin-3-yl)-4,6-diethoxypicolinic acid]: 1 to 8 µM; for `CCOc1cc(C(=O)O)nc(OCC)c1-c1cn(C2CCC(F)(F)CC2)c2ncc(-c3c(C)noc3C)cc12` [P-0425, 5-(1-(4,4-difluorocyclohexyl)-5-(3,5-dimethylisoxazol-4-yl)-1H-pyrrolo[2,3-b]pyridin-3-yl)-4,6-diethoxypicolinic acid]: 8 to 1000 µM.

As for `CCOc1cc(C(=O)O)ncc1-c1cn(C(C2CC2)C2CC2)c2ncc(-c3c(C)noc3C)cc12` [P-0427, 5-(1-(dicyclopropylmethyl)-5-(3,5-dimethylisoxazol-4-yl)-1H-pyrrolo[2,3-b]pyridin-3-yl)-4-ethoxypicolinic acid], the IC50 lay within 1 to 8 µM.

As to `CCOc1cc(C(=O)O)ncc1-c1cn(C2CCOCC2)c2ncc(-c3c(C)noc3C)cc12` [P-0428, 5-(5-(3,5-dimethylisoxazol-4-yl)-1-(tetrahydro-2H-pyran-4-yl)-1H-pyrrolo[2,3-b]pyridin-3-yl)-4-ethoxypicolinic acid], the IC50 is 0.0001 to 1 µM.
